From ChEMBL document CHEMBL4609974, “Triazole derivatives and their antiplasmodial and antimalarial activities” (Eur J Med Chem, 2019)
In brackets after ≈: the same amount, converted by molar mass.

Columns and labels:
Plasmodium falciparum [1] = test: Antimalarial activity against chloroquine-sensitive Plasmodium falciparum 3D7; type: functional, organism-based
Plasmodium falciparum [2] = test: Antimalarial activity against chloroquine-sensitive Plasmodium falciparum D6; type: functional, organism-based
Plasmodium falciparum [3] = test: Antimalarial activity against chloroquine-resistant Plasmodium falciparum W2; type: functional, organism-based
Plasmodium falciparum [4] = test: Antimalarial activity against chloroquine-resistant Plasmodium falciparum K1; type: functional, organism-based
Staphylococcus aureus = test: Antimicrobial activity against Staphylococcus aureus; type: functional
Enterococcus faecalis = test: Antimicrobial activity against Enterococcus faecalis; type: functional
Plasmodium falciparum [5] = test: Antimalarial activity against chloroquine-resistant Plasmodium falciparum […]; type: functional, organism-based

Compound	IC50 (Plasmodium falciparum [2])	IC50 (Plasmodium falciparum [3])	IC50 (Plasmodium falciparum [4])	other results
COc1ccc2cc3[n+](cc2c1OCc1cn(-c2ccc(S(=O)(=O)Nc4ccc(F)cc4)cc2)nn1)CCc1cc2c(cc1-3)OCO2				IC50 (Plasmodium falciparum [1]): 0.142 to 28 µM
OCc1cn(CCNc2ccnc3cc(Cl)ccc23)nn1	0.9 to 11.5 µM	0.9 to 11.5 µM		
Cc1ccc(OCc2cn(CCNc3ccnc4cc(Cl)ccc34)nn2)cc1C	0.9 to 11.5 µM	0.9 to 11.5 µM		
COc1ccc2cc3[n+](cc2c1OCc1cn(-c2ccc(S(=O)(=O)N4CCOCC4)cc2)nn1)CCc1cc2c(cc1-3)OCO2				IC50 (Plasmodium falciparum [1]): 0.142 to 28 µM
O=[N+]([O-])c1cccc(-n2cc(CNc3ccc4nc(-c5ccccc5)c(-c5ccccc5)nc4c3)nn2)c1			7.1 to 153 µM	
O=C(c1cn(CCNc2ccnc3cc(Cl)ccc23)nn1)C1CCCCO1 (centres undefined)	0.9 to 11.5 µM	0.9 to 11.5 µM		
COc1ccc2cc3[n+](cc2c1OCc1cn(-c2ccc(S(=O)(=O)Nc4ccc(Br)cc4)cc2)nn1)CCc1cc2c(cc1-3)OCO2				IC50 (Plasmodium falciparum [1]): 0.142 to 28 µM
COc1ccc2cc3[n+](cc2c1OCc1cn(-c2ccc(S(=O)(=O)N4CCCCC4)cc2)nn1)CCc1cc2c(cc1-3)OCO2				IC50 (Plasmodium falciparum [1]): 0.142 to 28 µM
OCc1cn(CCCNc2ccnc3cc(Cl)ccc23)nn1	0.59 to 4.71 µM	0.59 to 4.71 µM		
Fc1ccc(-c2nc3ccc(N(Cc4cn(-c5ccc(F)cc5)nn4)Cc4cn(-c5ccc(F)cc5)nn4)cc3nc2-c2ccc(F)cc2)cc1			9.76 to 3540 µM	
CC[C@H]1OC(=O)C[C@@H](O)[C@H](C)C(O[C@@H]2O[C@H](C)[C@@H](O)[C@H](N(C)C)[C@H]2O)C(CC=O)C[C@@H](C)C(=N\OCc2cn(-c3cnc4ccccc4c3)nn2)/C=C/C(C)=C/[C@@H]1CO[C@@H]1O[C@H](C)[C@@H](O)[C@@H](OC)[C@H]1OC (some centres undefined)			2 µg/mL	MIC (Staphylococcus aureus): 0.5 to 1 µg/mL (≈ 0.502 to 1 µM); MIC (Enterococcus faecalis): 0.5 to 1 µg/mL (≈ 0.502 to 1 µM)
O=[N+]([O-])c1cccc(-n2cc(CN(Cc3cn(-c4cccc([N+](=O)[O-])c4)nn3)c3ccc4nc(-c5ccccc5)c(-c5ccccc5)nc4c3)nn2)c1			9.76 to 3540 µM	
Clc1ccc2c(NCCn3cc(COc4ccc5ccccc5c4)nn3)ccnc2c1	0.9 to 11.5 µM	0.9 to 11.5 µM		
COc1ccc2cc3[n+](cc2c1OCc1cn(-c2ccc(S(=O)(=O)Nc4ccccc4)cc2)nn1)CCc1cc2c(cc1-3)OCO2				IC50 (Plasmodium falciparum [1]): 0.142 to 28 µM
COc1ccc2cc3[n+](cc2c1OCc1cn(-c2ccc(S(=O)(=O)N4CCN(C)CC4)cc2)nn1)CCc1cc2c(cc1-3)OCO2				IC50 (Plasmodium falciparum [1]): 0.142 to 28 µM
Cc1ccc(OCc2cn(CCNc3ccnc4cc(Cl)ccc34)nn2)cc1	0.9 to 11.5 µM	0.9 to 11.5 µM		
Clc1ccc2c(NCCn3cc(COc4ccc(Br)cc4)nn3)ccnc2c1	0.9 to 11.5 µM	0.9 to 11.5 µM		
Cc1nnc(Cn2cc(C(=O)NNC(=O)Nc3ccccc3)c(=O)c3cc(F)c(Cl)cc32)n1N				IC50 (Plasmodium falciparum [5]): 3.89 µM
Cc1ccc(-n2cc(CN(Cc3cn(-c4ccc(C)cc4)nn3)c3ccc4nc(-c5ccccc5)c(-c5ccccc5)nc4c3)nn2)cc1			9.76 to 3540 µM	
Fc1ccc(-c2nc3ccc(N(Cc4cn(-c5cccc(C(F)(F)F)c5)nn4)Cc4cn(-c5cccc(C(F)(F)F)c5)nn4)cc3nc2-c2ccc(F)cc2)cc1			9.76 to 3540 µM	
Cc1ccc(-n2cc(CNc3ccc4nc(-c5ccccc5)c(-c5ccccc5)nc4c3)nn2)cc1			7.1 to 153 µM	
Cc1cc(OCc2cn(CCNc3ccnc4cc(Cl)ccc34)nn2)ccc1Cl	0.9 to 11.5 µM	0.9 to 11.5 µM		
COc1ccc2cc3[n+](cc2c1OCc1cn(-c2ccc(S(N)(=O)=O)cc2)nn1)CCc1cc2c(cc1-3)OCO2				IC50 (Plasmodium falciparum [1]): 0.142 to 28 µM
CC(=O)c1ccc(OCc2cn(CCCNc3ccnc4cc(Cl)ccc34)nn2)cc1	0.59 µM	1.14 µM		
C[C@@H]1CC[C@H]2[C@@H](C)C(=O)O[C@@H]3O[C@@]4(C)CC[C@@H]1[C@]32OO4 [ARTEMISININ]	0.03 µM	0.25 µM		
Fc1ccc(-c2nc3ccc(NCc4cn(-c5ccccc5)nn4)cc3nc2-c2ccc(F)cc2)cc1			7.1 to 153 µM	
COc1ccc2cc3[n+](cc2c1OCc1cn(-c2ccc(S(=O)(=O)Nc4ccc([N+](=O)[O-])cc4)cc2)nn1)CCc1cc2c(cc1-3)OCO2				IC50 (Plasmodium falciparum [1]): 0.142 to 28 µM
Clc1ccc2c(NCCn3cc(COc4c(Cl)cccc4Cl)nn3)ccnc2c1	0.9 to 11.5 µM	0.9 to 11.5 µM		
O=[N+]([O-])c1ccc(OCc2cn(CCNc3ccnc4cc(Cl)ccc34)nn2)cc1	0.9 to 11.5 µM	0.9 to 11.5 µM		
FC(F)(F)c1cccc(-n2cc(CN(Cc3cn(-c4cccc(C(F)(F)F)c4)nn3)c3ccc4nc(-c5ccccc5)c(-c5ccccc5)nc4c3)nn2)c1			9.76 to 3540 µM	
